Assays:
hiPSC-derived NSCs [1] = assay: OLIG2 immunostaining of hiPSC-derived NSCs at D12; type: cell-based, human; details: for effect on WIN-induced upregulation of OLIG2+ cells: co-treatment with WIN, D12
Procedure: (§1) In order to generate PAX6+/NESTIN+/SOX2+NSC, the dual SMAD neural induction method was used. hiPSCs with a density of ˜80% with neural induction medium (NIM) were treated from day 0 (DO) to day 7, and the medium was changed every day. Starting from D8, the medium was changed daily to fresh N2 medium containing RA (100 nM), purine amine (PUR, 1 μM) and WIN (1 μM). Starting from D12, cells were manually isolated and suspended in the ultra-low attachment plate in N2B27 medium containing RA (100 nM), PUR (1 μM) and WIN (1 μM), and the medium was changed every other day. Starting from D20, the spheroids were further suspended in PDGF-AA medium for culture. At D30, expanded spheroids were seeded on Matrigel-coated plates or Petri dishes with low growth factors in the glial differentiation medium (GDM).
(§2) The identification of cell markers in the present invention uses an immunofluorescence staining method, wherein cells (NSCs, OPCs and OLs) at different culture stages were cultured on confocal Petri dishes coated with Matrigel or Matrigel with reduced growth factors, washed three times with pre-cooled PBS, and fixed with 4% paraformaldehyde (PFA) at room temperature for 15 minutes. The fixed samples were then washed three times, permeabilized and blocked with blocking solution containing 0.5% triton X-100 and 2% bovine serum albumin (BSA) for 30 min at room temperature. The diluted primary antibodies listed in Table S2 were applied to cover the cells overnight at 4° C. The next day, the corresponding secondary antibodies (listed in Table S3) were added for staining in the dark for 60 min at room temperature after washing. DAPI containing anti-fluorescence quencher was then added to the culture dish for nuclear staining. Images were taken using a confocal microscope (Zeiss, LSM880) or an inverted microscope (Nikon, Eclipse Ti2-U).

[2] = tested on: hiPSC-derived cell spheres; assay: Cell migration out of spheroids; type: cell-based, human; details: after 36 hours, n=40
Procedure: In order to test the migration ability, the inventor carried out experiments on two dimensions of spheroid and single-cell state. First, the inventors have observed the ability of cells in the control and WIN groups to migrate out of the spheroids. Selected spheroids of the same size at day 30 from the control and WIN groups were seeded on 6-well plates coated with Matrigel with reduced growth factor in GDM medium. After 4, 12, 24, and 36 h, cell spheres and migrated cells were observed and imaged under an inverted microscope.

hiPSC-derived OPCs [3] = assay: OPC marker immunofluorescence and flow cytometry at D34; type: cell-based, human; details: D34, n=3
Procedure: as §2
Taking flow cytometry based on anti-O4-APC antibody as an example, 2 μL antibody was added to a 98 μL of single cell suspension containing 1×10^6 cells and cell staining buffer, mixed well and incubated for 10 min in the dark in a refrigerator. After incubation, cells were washed and dried. […]

hiPSC-derived OPCs [4] = assay: Scratch assay, single-cell migration; type: cell-based, human; details: at 48h, n=3
Procedure: In the scratch assay, 34-day-old cells were digested with pre-warmed accutase and filtered through […] cell filter to produce a single-cell suspension. After centrifugation, these single cells were seeded on a 24-well plate coated with Matrigel with reduced growth factor at the density of 2×10^6/mL and cultured with GDM. When the cell confluence reached 70-80%, a scratch was formed on the cell using 10 μL the pipette tip. After washing with DPB, fresh GDM was added to the wells. Cell images were collected at 0, 12, 24, 36, 48, 60, and 72 h using an inverted microscope. All images were measured and analyzed by Image J (i.e., software image J).

NSC = assay: Effect of WIN concentration series on NSC growth; type: cell-based, human; details: 1 μM WIN
hiPSC-derived OPCs [5] = assay: In vitro maturation of OPCs to OLs (O4, GALC, MBP; immunofluorescence and flow cytometry); type: cell-based, human
Procedure: as §2
Taking flow cytometry based on anti-O4-APC antibody as an example, 2 μL antibody was added to a 98 μL of single cell suspension containing 1×10^6 cells and cell staining buffer, mixed well and incubated for 10 min in the dark in a refrigerator. After incubation, cells were washed and dried. The cell pellet was then resuspended in an appropriate amount of buffer and filtered through […] cell filter prior to analysis. Flow cytometry was performed on a CytoFLEX cytometer (Beckman, USA).

O4+ OPCs = assay: Nanofiber myelination assay; type: cell-based, human; details: after 2 weeks of culture
Procedure: O4+ OPC isolation was performed according to the manufacturer's instructions using MACS based on anti-O4 microbeads (MiltenyiBiotec, Germany). A single cell suspension was prepared by digesting cells with pre warmed Accutase at 37° C. for 30 min at day 44. After digestion, the cell mixture was diluted with pre-cooled DMEM/F12 and centrifuged at 300 g for 5 min at room temperature. The cells were then resuspended in DMEM/F12 and filtered through […] cell filter, and cells were collected by centrifugation at 300 g for 5 min at room temperature. After mixing evenly, the cell mixture was incubated in a refrigerator for 15 min. Then 1 mL of cold MACS buffer was added and centrifuged at 300 g for 10 min. The cell pellet was resuspended in 500 μL cold MACS buffer and mixed well. Afterwards, the cell mixture was added to the MS column and pre-rinsed using 500 μL cold MACS buffer in the magnetic field of a suitable MACS separator, and the column was washed three times with 500 μL buffer. Unlabeled cells were collected from the effluent. When the column reservoir was empty, the column was placed on a 15 mL collection tube and rinse with 1 mL buffer. Magnetically labeled cells were collected from the effluent by firmly pushing the plunger into the column. The eluted O4+ rich cells were then centrifuged at 300 g for 5 min and resuspended in 1 mL GDM. […]

D30 cells = assay: RNA SEQ on D30 cells; type: cell-based, human
Procedure: Total RNA was extracted using RNA rapid purification kit (ES science, Shanghai, China) according to the manufacturer's instructions. RNA library sequencing was performed on an Illumina HiseqTM 2500/4000 by Gene Denovo Biotechnology Co.,
Ltd. (Guangzhou, China). Bioinformatics analysis was performed using Omicsmart, which is a real-time interactive online platform for data analysis (http://www.omicsmart.com).

hiPSC-derived OPCs/OLs = assay: qRT-PCR relative mRNA expression in differentiating cells; type: cell-based, human
From the text: The present invention uses qRT-PCR to calculate the relative mRNA expression fold changes. The specific method is as follows: according to the manufacturer's instructions, the RNA rapid purification kit (ES science, Shanghai, China) was used to collect and purify the total RNA of cells and spinal cord tissue. After quantifying the RNA concentration with NANODROP ONE (Thermo Fisher Scientific, USA),
EasyScript® Integrated first-line cDNA synthesis Supermix and T100TM thermal cycler (BIO-RAD) was used for […] (one-step gDNA removal), and then PerfectStart Green qPCR SiperMix (TRNAS, China) and LightCycler® 96 (Roche) were used for quantification by qRT-PCR. All processes were performed according to the manufacturer's instructions. 2-AACt method was used to calculate the relative mRNA expression fold changes.

hiPSC-derived NSCs [6] = assay: Number of OLIG2+ spheroids in suspension culture at D20; type: cell-based, human; details: D20, n=3
Procedure: as §1

[7] = tested on: rat neuropathic pain models; details: cited from earlier work

SMILES | effect on WIN-induced upregulation of OLIG2+ cells (hiPSC-derived NSCs [1]) | OLIG2-positive (OLIG2+) cells (hiPSC-derived NSCs [1]; 1 μM WIN, D12, n=3) [%] | average migration distance of cells from cell spheres [2] [μm] | cells expressing PDGFR α (hiPSC-derived OPCs [3]) | migration rate in scratch experiment (hiPSC-derived OPCs [4]) [%] | side effects on the growth of NSC (NSC) | percentage of O4+ cells (hiPSC-derived OPCs [5]; D44, n=4) [%] | cells expressing immature OL marker GALC (hiPSC-derived OPCs [5]; D55, n=3) [%] | percentage of mature OLs co-expressing O4 and MBP (hiPSC-derived OPCs [5]; D66, n=3) [%] | area of nanofibers covered by MBP compared with control group (O4+ OPCs) | number of MBP+ OLs on nanofibers compared with control group (O4+ OPCs) | genes down-regulated compared with control group (D30 cells) [genes] | genes up-regulated compared with control group (D30 cells) [genes] | mRNA expression level of PDGFR a compared with control group (hiPSC-derived OPCs/OLs; D30, n=3, P<0.01) | mRNA expression of GALC (hiPSC-derived OPCs/OLs; D55) | mRNA expression of MBP (hiPSC-derived OPCs/OLs; D55) | mRNA expression of PLP1 (hiPSC-derived OPCs/OLs; D55) | OLIG2+ spheroids relative to control group (hiPSC-derived NSCs [6]) [times] | analgesic activity [7]
COc1ccc(C(=O)c2c(C)n(CCN3CCOCC3)c3cc(I)ccc23)cc1 [AM630] | significantly inhibited |  |  |  |  |  |  |  |  |  |  |  |  |  |  |  |  |  | 
Cc1c(C(=O)c2cccc3ccccc23)c2cccc3c2n1[C@H](CN1CCOCC1)CO3 [WIN, WIN55212-2] |  | 95.4±0.2 | 203.7±6.3 | more than 95.4±2.2% | 44.5±1.0 | no side effects on the growth of NSC | 42.4±2.1 | 86.2±5.3 | 37.2±2.9 | significantly increased | significantly increased | 98 | 983 | up-regulated | up-regulated | up-regulated | up-regulated | 1.7 ±0.1 | potent analgesic
Cc1c(C(=O)NN2CCCCC2)nn(-c2ccc(Cl)cc2Cl)c1-c1ccc(Cl)cc1 [rimonabant, Rimonabant] | significantly inhibited |  |  |  |  |  |  |  |  |  |  |  |  |  |  |  |  |  | 

Source: patent US20250319136A1, “METHOD FOR PREPARING OLIGOD[…] USE” (Shenzhen ExoNeuglia Biomedical Technology Co., Ltd., priority 2022, published 2025)
